Key:
[1] = cited from earlier work
[2] = test system: d(puADA) in the template (T3); assay: Paused-extension screen of polymerases; assay type: biochemical; settings: template T3, primer P3, dNTPs, 72° C., 15 seconds
Description: FIG. 6. Use of Taq and DeepVent (DV) exo^+ polymerases as sequencing tools. Both polymerases were incubated with template T3, primer P3, and dNTPs.P=primer alone, 19 nts in length. […] Deep Vent exo appears to be degrading the primer, and perhaps the product as well.
Radiolabeled primer P3 (1 pmol) was mixed with template T3 (2 pmol), Thermopol buffer (1.5 μL, 10×), dATP, dCTP, dTTP, dGTP (final conc. 10 μM each), and water to a final volume of 14 μL. The mixture was heated to 95° C. for 10 min. and allowed to cool to ambient for 1 hour. The respective polymerase (Taq, Vent, Deep Vent, Vent exo^−, or Deep Vent exo−) was added (1 μL, 2 U/μL) and the reaction incubated at 72° C. for 15 seconds. The reaction was quenched with 20 mM EDTA in PAGE loading buffer (15 μL) and subsequently analyzed by electrophoresis on a 20% PAGE gel. The gel was analyzed using the MolecularImager software.

O=c1[nH]c(=O)c2[nH]cnc2[nH]1 [pu(ADA), xanthine]
pKa of the heterocycle (acid) ([1]; free heterocycle): ca. 5.7

Nc1ccnc(N)n1 [py(DAD), 2,4-diaminopyrimidine]
pKa of the conjugate acid ([1]; protonated heterocycle): ≈ 6.7

Taq polymerase: Taq polymerase used as sequencing tool
elongation upon encountering dX / d(puADA) in the template [2]: terminates the elongation of a primer | elongation upon encountering dX / d(puADA) in the template ([2]; listed as Taq): abort elongation
